Like-named read-outs stand apart in the source and are kept apart here.
Tests used:
Type in all cases: cell-based
IL-6 = test: Cytokine release after LPS induction on human whole blood: IL-6
Protocol: (§1) Aim of this in vitro method is to assess compounds effects on release of a panel of cytokines from whole blood following lipopolysaccharide (LPS) induced inflammatory reaction. Whole blood was incubated with compounds for 1 h prior to LPS induction. Cytokine levels in blood were measured using a multiplex FACS-based panel.
(§2) IC50 values determined for the tested compounds expressed in microM [μM] and the values for the inhibition of cytokines were listed for each compound.
(§3) Effect on cytokines release after LPS induction was performed on the compounds dissolved in DMSO or H2O to reach 10-fold concentrated stock solutions and dissolved in culture media.
(§4) Test system: Whole blood was removed from a single donor (into lithium heparin coated tubes; BD Vacutainer; 367886) and diluted 1:5 with RPMI 1640 (Thermo Fisher, 61870036). Within 30 minutes of sampling, blood was incubated with compounds for 1 h prior to LPS stimulation (O111:B4—Sigma L4391; 10 ng/ml final concentration). Stimulation continued under standard cell culture conditions (37° C. with 5% CO2) overnight (18 h), after which plates were centrifuged and supernatant removed and frozen at −80° C. until used for analyses.
(§5) Dilution of test compounds: 10×concentrated solutions (concerning to the final assay concentrations) of each test compound were prepared with the appropriate solvent (in DMSO or in water). These 10× compound solutions (10 μl) were then added to 90 μl pre-diluted whole blood (whole blood: RPMI1640, 1:5) resulting in the final assay concentration.
(§6) Test method: Diluted whole blood (80 μl) was pre-incubated with compounds (10 μl) to give final assay concentrations of 100, 30, 10, 3, 1, 0.3 and 0.1×10^−6M. Blood was incubated at 37° C. with 5% CO2 for 1 h. LPS was diluted in cell culture media to a concentration of […]; 10 μl was added to the whole blood to give a final concentration of 10 ng/ml. Plates were incubated at 37° C. for 18 h. Plates were centrifuged at 3,000 RPM for 5 minutes at 4° C. and supernatant removed and frozen at −80° C. until FACS analysis was carried out.
(§7) Cytokine release was measured using a custom multiplex system (ELISA Genie) according to manufacturers instructions. Prepared samples were run on an Attune NxT flow cytometer (Thermo Fisher).
(§8) Quantification of cytokine release inhibition: known concentration standards were run as part of the cytokine panel to allow quantification of each cytokine concentration in each sample. This was carried out using FCAP Array v3.0 software.
(§9) Results: The dose response relationship on cytokine release following LPS induction of inflammatory response in whole blood was assessed for all compounds. IC50 values were determined for each compound for a panel of cytokines (GM-CSF, IFN-gamma, IL-1beta, IL-2, IL-4, IL-5, IL-6, IL-8, IL-9, IL-10, IL-12p40, IL-13, IL-17A, IL-17F, IL-18, IL-21, IL-22, IL-33, TGF-beta, TNF-alpha, TNF-beta).

IL-10 = test: Cytokine release after LPS induction on human whole blood: IL-10
Protocol: as §1, §2, §3, §4, §5, §6, §7, §8, §9

TGF-beta = test: Cytokine release after LPS induction on human whole blood: TGFβ
Protocol: as §1, §2, §3, §4, §5, §6, §7, §8, §9

[1] = Homo sapiens, LPS 10 ng/ml, 18 h, read-out: Whole Blood: IL-6 IC50
[2] = human whole blood, inhibition of LPS induced inflammation, read-out: IC50 IL-6
[3] = Homo sapiens, LPS 10 ng/ml, 18 h, read-out: Whole Blood: IL-10 IC50
[4] = human whole blood, inhibition of LPS induced inflammation, read-out: IC50 IL-10
[5] = Homo sapiens, LPS 10 ng/ml, 18 h, read-out: Whole Blood: TGFβ IC50
[6] = human whole blood, inhibition of LPS induced inflammation, read-out: IC50 TGFbeta

O=C(O)c1cc(O)c(C(=O)Nc2ccc(-c3nnn[nH]3)cc2)cc1O [Ia-003a-Tz, 4-(4-(1H-tetrazol-5-yl)phenyl-aminocarbonyl)-2,5-dihydroxybenzoic acid]
IC50 (IL-6; [1]): 1.41 µM | IC50 (IL-6; [2]): 1.41 µM | IC50 (IL-10; [3]): 6.94 µM | IC50 (IL-10; [4]): 6.94 µM | IC50 (TGF-beta; [5]): > 100 µM | IC50 (TGF-beta; [6]): 100 µM

O=C(O)c1cc(O)cc(CSCc2cc(O)cc(C(=O)O)c2O)c1O [IVc-058a, 3-((2,5-Dihydroxy-3-carboxyphenyl)methylthiomethyl)-2,5-dihydroxybenzoic acid]
IC50 (IL-6; [1]): 0.21 µM | IC50 (IL-6; [2]): 0.21 µM | IC50 (IL-10; [3]): 16.4 µM | IC50 (IL-10; [4]): 16.4 µM | IC50 (TGF-beta; [5]): > 100 µM | IC50 (TGF-beta; [6]): 100 µM

O=C(O)Cc1cc(O)c(C(=O)Nc2ccccc2-c2nnn[nH]2)cc1O [IIIa-001aTz]
IC50 (IL-6; [1]): 1.98 µM | IC50 (IL-6; [2]): 1.98 µM | IC50 (IL-10; [3]): 7.78 µM | IC50 (IL-10; [4]): 7.78 µM | IC50 (TGF-beta; [5]): > 100 µM | IC50 (TGF-beta; [6]): 100 µM

O=C(Nc1ccccc1-c1nnn[nH]1)c1cc(O)c(C(=O)Nc2ccccc2-c2nnn[nH]2)cc1O [Ic-001aTz2, N1,N4-bis(2-(1H-tetrazol-5-yl)phenyl)-2,5-dihydroxyterephthalamide]
IC50 (IL-6; [1]): 0.52 µM | IC50 (IL-10; [3]): > 100 µM | IC50 (TGF-beta; [5]): > 100 µM

O=C(O)c1cc(O)c(C(=O)Nc2ccccc2-c2nnn[nH]2)cc1O [Ia-001a-Tz, 4-(2-(1H-tetrazol-5-yl)phenyl-aminocarbonyl)-2,5-dihydroxybenzoic acid]
IC50 (IL-6; [1]): 0.75 µM | IC50 (IL-6; [2]): 0.75 µM | IC50 (IL-10; [3]): 26.1 µM | IC50 (IL-10; [4]): 26.1 µM | IC50 (TGF-beta; [5]): > 100 µM | IC50 (TGF-beta; [6]): 100 µM

O=C(O)Cc1cc(O)c(C(=O)Nc2c(C(=O)O)cccc2C(=O)O)cc1O [IIIa-013a, 2-(4-(carboxymethyl)-2,5-dihydroxybenzamido)isophthalic acid]
IC50 (IL-6; [1]): 3.55 µM | IC50 (IL-6; [2]): 3.55 µM | IC50 (IL-10; [3]): 37.3 µM | IC50 (IL-10; [4]): 37.3 µM | IC50 (TGF-beta; [5]): > 100 µM | IC50 (TGF-beta; [6]): 100 µM

COC(=O)c1cc(OC(C)=O)cc(CS(=O)(=O)Cc2cc(OC(C)=O)cc(C(=O)OC)c2OC(C)=O)c1OC(C)=O [IVc-059a-E2-A4]
IC50 (IL-6; [1]): 0.99 µM | IC50 (IL-6; [2]): 0.99 µM | IC50 (IL-10; [3]): 16.8 µM | IC50 (IL-10; [4]): 16.8 µM | IC50 (TGF-beta; [5]): > 100 µM | IC50 (TGF-beta; [6]): 100 µM

O=C(O)c1cc(NC(=O)c2cc(O)c(C(=O)O)cc2O)cc(NC(=O)c2cc(O)c(C(=O)O)cc2O)c1 [Ib-010a, 3,5-bis(2,5-dihydroxy-4-carboxybenzoylamino)benzoic acid]
IC50 (IL-6; [1]): 1.02 µM | IC50 (IL-6; [2]): 1.02 µM | IC50 (IL-10; [3]): > 100 µM | IC50 (IL-10; [4]): 100 µM | IC50 (TGF-beta; [5]): > 100 µM | IC50 (TGF-beta; [6]): 100 µM

O=C(O)c1cc(O)cc(CS(=O)(=O)Cc2cc(O)cc(C(=O)O)c2O)c1O [IVc-059a, 3-((2,5-Dihydroxy-3-carboxyphenyl)methylsulfonylmethyl)-2,5-dihydroxybenzoic acid]
IC50 (IL-6; [1]): 0.11 µM | IC50 (IL-6; [2]): 0.11 µM | IC50 (IL-10; [3]): 1.31 µM | IC50 (IL-10; [4]): 1.31 µM | IC50 (TGF-beta; [5]): > 100 µM | IC50 (TGF-beta; [6]): 100 µM

O=C(O)c1cc(NC(=O)c2cc(O)c(C(=O)Nc3ccc(O)c(C(=O)O)c3)cc2O)ccc1O [Ic-007a, 5-(4-(3-carboxy-4-hydroxyphenylaminocarbonyl)-2,5-dihydroxybenzamido)-2-hydroxy benzoic acid]
IC50 (IL-6; [1]): 0.09 µM | IC50 (IL-6; [2]): 0.09 µM | IC50 (IL-10; [3]): 12.5 µM | IC50 (IL-10; [4]): 12.5 µM | IC50 (TGF-beta; [5]): > 100 µM | IC50 (TGF-beta; [6]): 100 µM

O=C(O)c1cc(O)c(C(=O)Nc2ccccc2C(=O)O)cc1O [Ia-001a, 4-(2-carboxyphenylaminocarbonyl)-2,5-dihydroxybenzoic acid]
IC50 (IL-6; [1]): 1.24 µM | IC50 (IL-6; [2]): 1.24 µM | IC50 (IL-10; [3]): > 100 µM | IC50 (IL-10; [4]): 100 µM | IC50 (TGF-beta; [5]): > 100 µM | IC50 (TGF-beta; [6]): 100 µM

O=C(O)c1cc(O)ccc1NC(=O)c1cc(O)cc(C(=O)Nc2ccc(O)cc2C(=O)O)c1O [IIc-009a, 2-(3-(2-carboxy-4-hydroxyphenylaminocarbonyl)-2,5-dihydroxybenzamido)-5-hydroxyl benzoic acid]
IC50 (IL-6; [1]): 0.27 µM | IC50 (IL-6; [2]): 0.27 µM | IC50 (IL-10; [3]): 11.3 µM | IC50 (IL-10; [4]): 11.3 µM | IC50 (TGF-beta; [5]): > 100 µM | IC50 (TGF-beta; [6]): 100 µM

O=C(O)c1ccccc1CNC(=O)c1cc(O)cc(C(=O)O)c1O [IIa-053a, 3-(2-Carboxyphenylmethylaminocarbonyl)-2,5-dihydroxybenzoic acid]
IC50 (IL-6; [1]): 2.2 µM | IC50 (IL-6; [2]): 2.2 µM | IC50 (IL-10; [3]): > 100 µM | IC50 (IL-10; [4]): 100 µM | IC50 (TGF-beta; [5]): > 100 µM | IC50 (TGF-beta; [6]): 100 µM

O=C(O)c1cc(NC(=O)c2cc(O)cc(C(=O)Nc3ccc(O)c(C(=O)O)c3)c2O)ccc1O [IIc-007a, 5-(3-(3-carboxy-4-hydroxyphenylaminocarbonyl)-2,5-dihydroxybenzamido)-2-hydroxy benzoic acid]
IC50 (IL-6; [1]): 0.05 µM | IC50 (IL-6; [2]): 0.05 µM | IC50 (IL-10; [3]): 17.9 µM | IC50 (IL-10; [4]): 17.9 µM | IC50 (TGF-beta; [5]): > 100 µM | IC50 (TGF-beta; [6]): 100 µM

CC(=O)N(Cc1cc(O)c(C(=O)O)cc1O)Cc1cc(O)c(C(=O)O)cc1O [IIIc-057a, N,N-Bis(4-carboxy-2,5-dihydroxyphenylmethyl)acetamide]
IC50 (IL-6; [1]): 0.19 µM | IC50 (IL-6; [2]): 0.19 µM | IC50 (IL-10; [3]): > 100 µM | IC50 (IL-10; [4]): 100 µM | IC50 (TGF-beta; [5]): > 100 µM | IC50 (TGF-beta; [6]): 100 µM

O=C(O)c1cc(O)c(C(=O)Nc2ccccc2S(=O)(=O)O)cc1O [Ia-001c, 2,5-dihydroxy-4-(2-sulfophenylaminocarbonyl)benzoic acid]
IC50 (IL-6; [1]): 0.95 µM | IC50 (IL-6; [2]): 0.95 µM | IC50 (IL-10; [3]): 1.9 µM | IC50 (IL-10; [4]): 1.9 µM | IC50 (TGF-beta; [5]): > 100 µM | IC50 (TGF-beta; [6]): 100 µM

O=C(O)c1cc(O)c(CN(Cc2cc(O)c(C(=O)O)cc2O)Cc2cc(O)c(C(=O)O)cc2O)cc1O [IIIc-061a, Tris(4-carboxy-2,5-dihydroxyphenylmethyl)amine]
IC50 (IL-6; [1]): 0.18 µM | IC50 (IL-6; [2]): 0.18 µM | IC50 (IL-10; [3]): 17.9 µM | IC50 (IL-10; [4]): 17.9 µM | IC50 (TGF-beta; [5]): > 100 µM | IC50 (TGF-beta; [6]): 100 µM

O=C(O)c1cc(NC(=O)c2cc(O)c(C(=O)Nc3ccccc3-c3nnn[nH]3)cc2O)ccc1O [Ic-001a-Tz/004a, 5-(4-(2-(1H-tetrazol-5-yl)phenylaminocarbonyl)-2,5-dihydroxybenzamido)-2-hydroxy benzoic acid]
IC50 (IL-6; Homo sapiens, 18 h, read-out: Whole Blood: IL-6 IC50): 3.04 µM | IC50 (IL-6; Homo sapiens, read-out: IC50 IL-6): 3.04 µM | IC50 (IL-10; Homo sapiens, 18 h, read-out: Whole Blood: IL-10 IC50): 19.5 µM | IC50 (IL-10; Homo sapiens, read-out: IC50 IL-10): 19.5 µM | IC50 (TGF-beta; Homo sapiens, 18 h, read-out: Whole Blood: TGFβ IC50): > 100 µM | IC50 (TGF-beta; Homo sapiens, read-out: IC50 TGFbeta): 100 µM

— patent publication US20230150951A1, “2,5- OR 2,6-DISUBSTITUTED HYDROQUINONE DERIVATIVES WITH AT LEAST ONE CARBOXY, SULFO OR AMIDO GROUP USEFUL AS MEDICAMENTS” (OM PHARMA SA, priority 2020, published 2023)
